Data reported in ChEMBL document CHEMBL4376889, “Discovery of a Brain-Penetrant ATP-Competitive Inhibitor of the Mechanistic Target of Rapamycin (mTOR) for CNS Disorders” (J Med Chem, 2020).
Values after ≈ are worked out from the molar mass of the structure shown. Active and inactive are the calls of the source. The calls are words filed in the database; no cut-off is given here.

What was measured:
Cytochrome P450 3A4 = Cytochrome P450 3A4 (Homo sapiens, UniProt P08684); test: Inhibition of CYP3A4 (unknown origin); assay type: ADME
[1] = molecular target: T1, Serine/threonine-protein kinase mTOR (Mus musculus, UniProt Q9JLN9); test: Inhibition of mTOR in mouse MEF cells harboring TSC1 deletion mutant assessed as reduction in PS6 phosphorylation incuabted for 2 hrs alexa fluor 594 and Hoechst staining based fluorescence assay; assay type: cell-based
MDR1 = test: Efflux ratio of permeability from basolateral to apical over apical to basolateral side in MDCK-MDR1 cells; assay type: ADME, cell-based, Canis lupus familiaris; settings: dog
[2] = Stability in rat liver microsomes assessed as intrinsic clearance at 1 uM incubated for 30 mins by LC-MS/MS analysis; assay type: ADME, Microsome; settings: read-out: CLH
[3] = Solubility of compound at pH 6.8; assay type: physicochemical; settings: buffer
Mus musculus = test: Protection against C57BL/6J mouse model of neuronal mTOR hyperactivity assessed as survival rate at 6 mg/kg, ip administered on postnatal day 22 daily and measured on postnatal day 52 (reference value: 48 %); assay type: functional
Cortical neurone [4] = test: Inhibition of oversizing of mouse primary cortical neuron harboring TSC1 deletion mutant at 20 nM incubated for 7 days by immunofluorescence assay; assay type: functional, cell-based; settings: 168 h
Cortical neurone [5] = test: Inhibition of overgrowth of mouse primary cortical neuron harboring TSC1 deletion mutant at 20 nM incubated for 7 days by immunofluorescence assay; assay type: functional, cell-based
[6] = molecular target: T1, Serine/threonine-protein kinase mTOR; test: Inhibition of mTOR in mouse TSC1-/- MEF cells assessed as inhibition of S6 Ser240/244 phosphorylation incubated for 2 hrs by fluorescence based assay; assay type: cell-based
Cytochrome P450 2D6 = Cytochrome P450 2D6 (Homo sapiens, UniProt P10635); test: Inhibition of CYP2D6 (unknown origin); assay type: ADME
[7] = Stability in dog liver microsomes assessed as intrinsic clearance; assay type: ADME, Canis lupus familiaris, Microsome; settings: read-out: CLH
Cytochrome P450 2C9 = Cytochrome P450 2C9 (Homo sapiens, UniProt P11712); test: Inhibition of CYP2C9 (unknown origin); assay type: ADME
[8] = molecular target: Phosphatidylinositol 4,5-bisphosphate 3-kinase catalytic subunit beta isoform (Homo sapiens, UniProt P42338); test: Inhibition of PI3Kbeta (unknown origin)
[9] = Stability in monkey liver microsomes assessed as intrinsic clearance; assay type: ADME, Macaca mulatta, Microsome; settings: rhesus monkey, read-out: CLH
[10] = molecular target: Phosphatidylinositol 4,5-bisphosphate 3-kinase catalytic subunit alpha isoform (Homo sapiens, UniProt P42336); test: Inhibition of PI3Kalpha (unknown origin)
[11] = Stability in mouse liver microsomes assessed as intrinsic clearance; assay type: ADME, Microsome; settings: read-out: CLH
[12] = molecular target: Phosphatidylinositol 4,5-bisphosphate 3-kinase catalytic subunit delta isoform (Homo sapiens, UniProt O00329); test: Inhibition of PI3Kdelta (unknown origin)
[13] = Stability in human liver microsomes assessed as intrinsic clearance; assay type: ADME, Microsome; settings: read-out: CLH
[14] = molecular target: Phosphatidylinositol 4,5-bisphosphate 3-kinase catalytic subunit gamma isoform (Homo sapiens, UniProt P48736); test: Inhibition of PI3Kgamma (unknown origin)
[15] = Stability in rat liver microsomes assessed as intrinsic clearance; assay type: ADME, Microsome; settings: read-out: CLH

Chain of Cytochrome P450 3A4 (P08684 whole entry): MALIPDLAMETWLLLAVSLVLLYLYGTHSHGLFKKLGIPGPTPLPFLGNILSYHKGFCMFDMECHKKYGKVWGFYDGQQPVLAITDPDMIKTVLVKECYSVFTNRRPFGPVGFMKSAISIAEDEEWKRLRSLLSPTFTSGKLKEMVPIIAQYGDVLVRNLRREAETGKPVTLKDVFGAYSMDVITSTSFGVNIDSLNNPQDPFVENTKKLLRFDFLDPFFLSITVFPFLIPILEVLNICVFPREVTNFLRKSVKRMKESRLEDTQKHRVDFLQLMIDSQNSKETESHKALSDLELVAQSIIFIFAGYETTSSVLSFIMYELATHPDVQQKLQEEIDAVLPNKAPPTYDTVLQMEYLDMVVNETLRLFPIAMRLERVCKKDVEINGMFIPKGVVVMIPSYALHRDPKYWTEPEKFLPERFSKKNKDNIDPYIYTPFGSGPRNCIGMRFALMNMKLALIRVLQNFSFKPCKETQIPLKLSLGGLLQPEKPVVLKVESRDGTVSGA
Chain of Cytochrome P450 2D6 (P10635 whole entry): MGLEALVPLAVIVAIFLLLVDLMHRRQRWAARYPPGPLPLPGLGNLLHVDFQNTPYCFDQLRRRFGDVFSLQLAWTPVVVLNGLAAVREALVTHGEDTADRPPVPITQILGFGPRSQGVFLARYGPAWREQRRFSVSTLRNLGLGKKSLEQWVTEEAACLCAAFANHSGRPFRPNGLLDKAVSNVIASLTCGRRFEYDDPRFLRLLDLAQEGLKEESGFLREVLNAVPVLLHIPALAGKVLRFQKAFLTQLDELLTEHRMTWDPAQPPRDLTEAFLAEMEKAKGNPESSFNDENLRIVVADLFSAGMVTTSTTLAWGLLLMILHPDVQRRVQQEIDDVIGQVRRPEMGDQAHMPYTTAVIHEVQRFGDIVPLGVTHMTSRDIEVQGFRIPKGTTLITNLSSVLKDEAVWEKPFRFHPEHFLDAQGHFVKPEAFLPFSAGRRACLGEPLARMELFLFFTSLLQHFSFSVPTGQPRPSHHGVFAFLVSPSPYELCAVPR
Chain of Phosphatidylinositol 4,5-bisphosphate 3-kinase catalytic subunit gamma isoform (P48736 whole entry, canonical isoform): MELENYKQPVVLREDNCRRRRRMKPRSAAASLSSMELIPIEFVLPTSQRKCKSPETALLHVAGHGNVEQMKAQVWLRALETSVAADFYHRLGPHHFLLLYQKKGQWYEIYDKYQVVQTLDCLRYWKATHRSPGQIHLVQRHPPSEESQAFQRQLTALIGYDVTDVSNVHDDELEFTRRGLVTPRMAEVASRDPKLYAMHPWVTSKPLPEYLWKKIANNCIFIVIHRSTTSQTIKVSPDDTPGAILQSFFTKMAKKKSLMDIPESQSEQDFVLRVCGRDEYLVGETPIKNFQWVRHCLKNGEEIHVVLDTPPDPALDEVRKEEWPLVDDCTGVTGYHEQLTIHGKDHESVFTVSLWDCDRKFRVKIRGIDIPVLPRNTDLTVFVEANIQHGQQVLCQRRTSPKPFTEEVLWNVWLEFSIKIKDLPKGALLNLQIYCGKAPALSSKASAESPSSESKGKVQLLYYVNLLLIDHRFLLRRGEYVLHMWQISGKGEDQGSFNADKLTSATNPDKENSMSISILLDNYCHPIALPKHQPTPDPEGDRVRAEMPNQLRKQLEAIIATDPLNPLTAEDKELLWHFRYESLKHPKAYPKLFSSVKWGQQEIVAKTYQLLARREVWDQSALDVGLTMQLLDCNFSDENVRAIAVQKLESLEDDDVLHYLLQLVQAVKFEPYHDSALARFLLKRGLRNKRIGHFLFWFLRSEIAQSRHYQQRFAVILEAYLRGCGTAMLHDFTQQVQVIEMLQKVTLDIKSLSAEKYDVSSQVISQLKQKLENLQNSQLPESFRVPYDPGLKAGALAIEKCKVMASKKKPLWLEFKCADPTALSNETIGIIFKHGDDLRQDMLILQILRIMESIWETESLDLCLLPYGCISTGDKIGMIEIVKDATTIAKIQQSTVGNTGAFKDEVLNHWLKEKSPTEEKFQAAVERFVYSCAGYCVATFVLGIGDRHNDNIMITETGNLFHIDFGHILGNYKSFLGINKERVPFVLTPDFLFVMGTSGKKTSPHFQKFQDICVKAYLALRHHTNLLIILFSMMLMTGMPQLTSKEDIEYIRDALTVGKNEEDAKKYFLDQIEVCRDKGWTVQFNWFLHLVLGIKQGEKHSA
Chain of Phosphatidylinositol 4,5-bisphosphate 3-kinase catalytic subunit alpha isoform (P42336 whole entry, canonical isoform): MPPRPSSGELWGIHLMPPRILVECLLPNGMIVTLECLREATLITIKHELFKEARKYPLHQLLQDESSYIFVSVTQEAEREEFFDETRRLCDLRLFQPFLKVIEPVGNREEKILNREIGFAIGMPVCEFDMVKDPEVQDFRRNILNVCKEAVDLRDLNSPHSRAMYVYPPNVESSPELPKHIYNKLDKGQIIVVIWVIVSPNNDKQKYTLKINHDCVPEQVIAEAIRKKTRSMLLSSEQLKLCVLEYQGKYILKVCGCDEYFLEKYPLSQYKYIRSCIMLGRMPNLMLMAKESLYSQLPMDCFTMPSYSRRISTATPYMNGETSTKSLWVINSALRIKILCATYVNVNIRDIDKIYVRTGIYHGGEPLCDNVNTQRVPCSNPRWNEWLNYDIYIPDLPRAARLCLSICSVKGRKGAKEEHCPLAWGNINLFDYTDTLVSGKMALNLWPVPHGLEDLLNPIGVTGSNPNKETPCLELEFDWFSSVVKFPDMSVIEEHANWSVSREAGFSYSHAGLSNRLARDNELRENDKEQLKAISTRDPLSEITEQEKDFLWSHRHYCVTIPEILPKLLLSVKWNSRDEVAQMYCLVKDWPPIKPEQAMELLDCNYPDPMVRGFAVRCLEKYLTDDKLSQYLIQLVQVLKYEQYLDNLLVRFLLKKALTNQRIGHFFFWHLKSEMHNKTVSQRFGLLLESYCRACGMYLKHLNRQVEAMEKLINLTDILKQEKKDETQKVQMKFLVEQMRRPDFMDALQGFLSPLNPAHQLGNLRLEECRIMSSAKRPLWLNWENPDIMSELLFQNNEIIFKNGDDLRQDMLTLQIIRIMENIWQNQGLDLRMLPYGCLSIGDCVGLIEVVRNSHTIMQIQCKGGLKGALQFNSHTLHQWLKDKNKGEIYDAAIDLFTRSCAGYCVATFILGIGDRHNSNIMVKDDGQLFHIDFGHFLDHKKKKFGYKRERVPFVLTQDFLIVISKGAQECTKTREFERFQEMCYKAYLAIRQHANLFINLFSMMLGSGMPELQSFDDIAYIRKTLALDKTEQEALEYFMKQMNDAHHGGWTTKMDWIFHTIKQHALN
Chain of Phosphatidylinositol 4,5-bisphosphate 3-kinase catalytic subunit beta isoform (P42338 whole entry, canonical isoform): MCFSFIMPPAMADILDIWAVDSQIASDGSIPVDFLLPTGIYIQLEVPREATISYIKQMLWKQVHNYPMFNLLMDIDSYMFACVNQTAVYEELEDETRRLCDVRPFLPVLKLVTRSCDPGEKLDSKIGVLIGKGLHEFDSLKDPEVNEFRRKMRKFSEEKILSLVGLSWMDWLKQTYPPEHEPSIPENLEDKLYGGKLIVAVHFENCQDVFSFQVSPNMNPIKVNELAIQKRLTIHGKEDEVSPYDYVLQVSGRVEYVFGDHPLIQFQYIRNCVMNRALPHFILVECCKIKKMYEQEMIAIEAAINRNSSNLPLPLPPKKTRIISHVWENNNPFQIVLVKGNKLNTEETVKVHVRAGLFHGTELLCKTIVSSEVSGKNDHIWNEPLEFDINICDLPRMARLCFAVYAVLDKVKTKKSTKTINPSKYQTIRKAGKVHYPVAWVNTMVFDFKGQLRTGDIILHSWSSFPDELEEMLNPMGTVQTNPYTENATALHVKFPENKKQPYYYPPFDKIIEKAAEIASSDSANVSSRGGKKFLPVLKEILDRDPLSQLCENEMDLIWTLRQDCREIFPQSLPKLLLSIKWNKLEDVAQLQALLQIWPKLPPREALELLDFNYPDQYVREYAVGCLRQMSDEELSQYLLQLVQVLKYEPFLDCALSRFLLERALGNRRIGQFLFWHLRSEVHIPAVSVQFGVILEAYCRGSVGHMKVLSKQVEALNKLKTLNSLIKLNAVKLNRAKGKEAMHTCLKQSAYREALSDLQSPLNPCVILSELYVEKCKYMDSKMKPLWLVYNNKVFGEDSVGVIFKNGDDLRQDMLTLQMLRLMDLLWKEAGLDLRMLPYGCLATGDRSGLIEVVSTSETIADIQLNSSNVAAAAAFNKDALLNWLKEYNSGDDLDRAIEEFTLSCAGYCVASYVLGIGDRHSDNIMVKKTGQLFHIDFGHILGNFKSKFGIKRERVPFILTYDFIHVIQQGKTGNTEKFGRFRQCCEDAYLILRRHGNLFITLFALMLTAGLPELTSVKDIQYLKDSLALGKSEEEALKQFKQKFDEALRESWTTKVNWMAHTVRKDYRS
Chain of Cytochrome P450 2C9 (P11712 whole entry, canonical isoform): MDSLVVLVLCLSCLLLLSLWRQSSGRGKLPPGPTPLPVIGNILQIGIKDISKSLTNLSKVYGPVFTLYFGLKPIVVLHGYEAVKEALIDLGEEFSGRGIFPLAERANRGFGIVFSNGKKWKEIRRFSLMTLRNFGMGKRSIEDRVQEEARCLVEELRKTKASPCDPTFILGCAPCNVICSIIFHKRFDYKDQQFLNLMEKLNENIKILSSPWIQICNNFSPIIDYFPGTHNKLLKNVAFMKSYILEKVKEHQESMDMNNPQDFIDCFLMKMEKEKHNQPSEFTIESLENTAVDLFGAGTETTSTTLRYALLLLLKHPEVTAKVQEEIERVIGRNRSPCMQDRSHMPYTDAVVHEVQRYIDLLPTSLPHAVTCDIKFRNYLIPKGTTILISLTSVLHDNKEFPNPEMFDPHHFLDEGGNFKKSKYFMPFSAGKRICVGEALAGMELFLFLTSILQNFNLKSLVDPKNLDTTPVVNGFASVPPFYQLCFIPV

Row | Structure (SMILES) | K (Cytochrome P450 3A4) [min⁻¹] | IC50 [1] [nM] | microsomal CLint at 1 µM [2] [µL/min/mg] | solubility [3] [µg/mL] | also measured
1 | C[C@@H]1COCCN1c1nc(N2CCOC[C@@H]2C)nc2sc(-c3c[nH]cn3)nc12 | 0.013 | 7.8 |  |  | efflux ratio (MDR1): 0.89
2 | C[C@@H]1COCCN1c1nc(N2CCOC[C@@H]2C)nc2sc(-c3cccc(O)c3)nc12 | 0.035 | 278 |  |  | 
3 | C[C@@H]1COCCN1c1nc(N2CCOC[C@@H]2C)nc2sc(-c3cn[nH]c3)nc12 | 0.02 | 56 |  |  | 
4 | C[C@@H]1COCCN1c1nc(N2CCOC[C@@H]2C)nc2sc(-c3cccc4[nH]ccc34)nc12 | 0.027 | 305 |  |  | 
5 | CO[C@H]1C[C@@H]2CC[C@@H](C)[C@@](O)(O2)C(=O)C(=O)N2CCCC[C@H]2C(=O)O[C@H]([C@H](C)C[C@@H]2CC[C@@H](OCCO)[C@H](OC)C2)CC(=O)[C@H](C)/C=C(\C)[C@@H](O)[C@@H](OC)C(=O)[C@H](C)C[C@H](C)/C=C/C=C/C=C/1C [EVEROLIMUS] |  |  |  |  | Activity (Mus musculus): 100%; IC50 (Cortical neurone [4]): 0.15 nM; inhibition (Cortical neurone [5]): Active
6 | C[C@@H]1COCCN1c1nc(N2CCOC[C@@H]2C)nc2sc(-c3cn[nH]n3)nc12 | 0.01 | 6.9 |  |  | efflux ratio (MDR1): 0.65
7 | C[C@@H]1COCCN1c1nc(N2CCOC[C@@H]2C)nc2[nH]c(-c3cccc4[nH]ccc34)nc12 | 0.08 |  |  |  | IC50 [6]: 38 nM; IC50 (Cytochrome P450 2D6): 12800 nM; microsomal CLint [7]: 60 µL/min/mg; IC50 (Cytochrome P450 2C9): 1980 nM; IC50 [8]: > 10000 nM; microsomal CLint [9]: 121 µL/min/mg; IC50 [10]: 6600 nM; microsomal CLint [11]: 62 µL/min/mg; IC50 [12]: 800 nM; microsomal CLint [13]: 27 µL/min/mg; IC50 [14]: 6600 nM; efflux ratio (MDR1): 0.95; microsomal CLint [15]: 35 µL/min/mg

Second part, led by results:

Row | K (Cytochrome P450 3A4) [min⁻¹] | IC50 [1] [nM] | microsomal CLint at 1 µM [2] [µL/min/mg] | solubility [3] [µg/mL] | Structure (SMILES) | also measured
8 | 0.008 | 92 | > 924 | 325 (≈ 809 µM) | C[C@@H]1COCCN1c1nc(CN2CCOCC2)nc2sc(-c3cc[nH]n3)nc12 | 
9 | 0.006 | 603 | 100 |  | C[C@@H]1COCCN1c1ncnc2sc(-c3cc[nH]n3)nc12 | 
10 | 0.011 | 2.7 | 164 | < 2 | C[C@@H]1COCCN1c1nc(N2CCCOCC2)nc2sc(-c3cc[nH]n3)nc12 | 
11 | 0.003 | 6.3 | 37 | 9 (≈ 23.3 µM) | C[C@@H]1COCCN1c1nc(C2CCOCC2)nc2sc(-c3cc[nH]n3)nc12 | 
12 | 0.012 | 3.7 | 104 | < 1 | CC(C)c1nc(N2CCOC[C@H]2C)c2nc(-c3cc[nH]n3)sc2n1 | 
13 | 0.011 | 5.3 | 24 | 4 (≈ 10.3 µM) | C[C@@H]1COCCN1c1nc(N2CCOCC2)nc2sc(-c3cc[nH]n3)nc12 | 
14 | 0.001 | 134 | > 924 | 191 (≈ 477 µM) | C[C@@H]1COCCN1c1nc(N2CCN(C)CC2)nc2sc(-c3cc[nH]n3)nc12 | 
